Source: ChEMBL document CHEMBL1157118, “Cooperative binding of a quinoline derivative to an RNA stem loop containing a dangling end” (Bioorg Med Chem Lett, 2010)
Active and inactive are the calls of the source. The calls are words filed in the database; no cut-off is given here.

What was measured:
Assay type in all cases: nucleic-acid assay
Nucleic Acid [1] = test: Binding affinity to 3'-dangling end of RNA1 ligand binding site 4 by isothermal titration calorimetry
Nucleic Acid [2] = test: Binding affinity to 3'-dangling end of RNA1 ligand binding site 3 by isothermal titration calorimetry
Nucleic Acid [3] = test: Binding affinity to 3'-dangling end of RNA1 by fluorescence spectroscopy analysis in presence of Triton X-100
Nucleic Acid [4] = test: Binding affinity to 3'-dangling end of RNA1 by UV reverse titration method
Nucleic Acid [5] = test: Binding affinity to 3'-dangling end of RNA1 by fluorescence spectroscopy analysis in absence of Triton X-100
Nucleic Acid [6] = test: Binding affinity to 3'-dangling end of RNA1 ligand binding site 2 by isothermal titration calorimetry
Nucleic Acid [7] = test: Binding affinity to 3'-dangling end of RNA1 ligand binding site 1 by isothermal titration calorimetry
Nucleic Acid [8] = test: Binding affinity to 3'-dangling end of RNA1 at 7.5 to 50 uM by CD spectroscopy

Kd (Nucleic Acid [1]): 12.5 µM
Kd (Nucleic Acid [2]): 8.1 µM
Kd (Nucleic Acid [3]): 12 µM
Activity (Nucleic Acid [4]): Active
Kd (Nucleic Acid [5]): 8.2 µM
Kd (Nucleic Acid [6]): 9.2 µM
Kd (Nucleic Acid [7]): 10.8 µM
Activity (Nucleic Acid [8]): Active
Structure (SMILES): OC(CNc1ccnc2cc(Cl)ccc12)CNc1ccnc2cc(Cl)ccc12
